Experimental data: patent US7635572B2, “Methods for conducting assays for enzyme activity on protein microarrays” (Life Technologies Corporation, priority 2004, dated 2009)
Like-named read-outs stand apart in the source and are kept apart here.

How the values were obtained:
Test in all cases: Further analysis of a plurality of inhibitors and a plurality of kinases on microarray (Example IX, Table 5);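 note: inhibition of each kinase by the inhibitors is given as a qualitative level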;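 for Inhibition level, STK4: level 0 no or unclear inhibition to Level 2 substantial inhibition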;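 for Inhibition level, TGFBR2: level 0 none or unclear then 1 little or marginal then 2 substantial inhibition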
Format in all cases: biochemical
[1] = target: T1, plurality of kinases (Table 5) (Homo sapiens, UniProt Q9Y616); settings: plate C9; inhibitor 100 uM
T1 sequence (Q9Y616 1-596): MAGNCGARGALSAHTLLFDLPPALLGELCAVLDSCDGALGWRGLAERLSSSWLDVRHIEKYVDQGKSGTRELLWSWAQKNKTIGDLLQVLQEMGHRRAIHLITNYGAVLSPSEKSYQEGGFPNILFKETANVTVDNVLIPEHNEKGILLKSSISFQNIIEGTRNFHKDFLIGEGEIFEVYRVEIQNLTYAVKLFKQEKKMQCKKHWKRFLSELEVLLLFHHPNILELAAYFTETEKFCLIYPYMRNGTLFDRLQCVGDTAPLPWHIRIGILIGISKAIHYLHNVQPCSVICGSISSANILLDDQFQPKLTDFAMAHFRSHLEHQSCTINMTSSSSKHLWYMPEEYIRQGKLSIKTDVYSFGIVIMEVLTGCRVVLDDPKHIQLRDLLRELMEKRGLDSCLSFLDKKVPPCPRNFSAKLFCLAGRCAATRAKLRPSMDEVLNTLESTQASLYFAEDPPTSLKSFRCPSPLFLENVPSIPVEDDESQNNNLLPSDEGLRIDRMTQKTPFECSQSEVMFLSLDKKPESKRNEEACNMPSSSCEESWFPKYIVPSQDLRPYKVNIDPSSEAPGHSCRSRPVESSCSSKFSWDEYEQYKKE

[2] = target: T2, plurality of kinases (Table 5) (Homo sapiens, UniProt P54762)
T2 sequence (P54762 18-984): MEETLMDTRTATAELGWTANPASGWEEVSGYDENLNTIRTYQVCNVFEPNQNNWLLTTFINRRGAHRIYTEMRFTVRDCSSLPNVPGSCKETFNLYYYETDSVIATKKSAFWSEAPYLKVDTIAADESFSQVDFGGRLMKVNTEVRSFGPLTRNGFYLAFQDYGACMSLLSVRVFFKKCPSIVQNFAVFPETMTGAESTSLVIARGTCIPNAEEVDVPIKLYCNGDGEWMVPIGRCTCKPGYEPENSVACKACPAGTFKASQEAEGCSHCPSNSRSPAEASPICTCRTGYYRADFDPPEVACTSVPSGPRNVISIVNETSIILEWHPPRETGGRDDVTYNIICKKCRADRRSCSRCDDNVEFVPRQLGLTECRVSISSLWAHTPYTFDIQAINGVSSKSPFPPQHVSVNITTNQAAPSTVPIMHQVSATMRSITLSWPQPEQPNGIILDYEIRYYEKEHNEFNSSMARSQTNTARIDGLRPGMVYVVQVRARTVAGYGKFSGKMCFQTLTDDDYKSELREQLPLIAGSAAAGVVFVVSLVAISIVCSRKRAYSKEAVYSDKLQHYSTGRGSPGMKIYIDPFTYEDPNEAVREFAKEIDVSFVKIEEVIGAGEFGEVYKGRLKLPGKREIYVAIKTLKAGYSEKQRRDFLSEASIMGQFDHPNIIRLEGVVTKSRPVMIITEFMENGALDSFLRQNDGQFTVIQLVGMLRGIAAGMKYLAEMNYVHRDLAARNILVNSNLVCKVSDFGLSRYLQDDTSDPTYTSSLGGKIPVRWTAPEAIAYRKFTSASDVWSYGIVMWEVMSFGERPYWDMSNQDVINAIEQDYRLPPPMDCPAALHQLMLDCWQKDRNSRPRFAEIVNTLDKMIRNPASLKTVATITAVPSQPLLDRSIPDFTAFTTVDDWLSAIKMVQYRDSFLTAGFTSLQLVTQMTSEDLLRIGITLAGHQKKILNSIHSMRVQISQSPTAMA

[3] = target: plurality of kinases (Table 5) (Homo sapiens, UniProt P37173); settings: plate C7
plurality of kinases (Table 5) (Homo sapiens, UniProt P37173), sequence (P37173 23-567): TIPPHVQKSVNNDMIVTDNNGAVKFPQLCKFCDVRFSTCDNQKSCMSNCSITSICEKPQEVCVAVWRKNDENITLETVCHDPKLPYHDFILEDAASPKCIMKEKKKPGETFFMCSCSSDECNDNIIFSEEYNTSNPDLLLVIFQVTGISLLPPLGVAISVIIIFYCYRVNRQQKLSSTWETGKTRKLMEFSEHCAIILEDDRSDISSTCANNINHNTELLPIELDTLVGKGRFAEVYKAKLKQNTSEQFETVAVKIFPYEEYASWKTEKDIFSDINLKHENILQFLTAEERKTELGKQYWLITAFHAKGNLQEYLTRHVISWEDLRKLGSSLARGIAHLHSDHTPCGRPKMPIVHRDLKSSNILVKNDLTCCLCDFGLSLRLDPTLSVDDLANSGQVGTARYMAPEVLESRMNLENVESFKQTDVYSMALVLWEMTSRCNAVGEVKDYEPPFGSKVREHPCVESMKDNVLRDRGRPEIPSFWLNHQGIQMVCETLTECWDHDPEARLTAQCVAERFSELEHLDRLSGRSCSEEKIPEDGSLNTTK

[4] = target: T3, plurality of kinases (Table 5) (Homo sapiens, UniProt Q13043); settings: plate D6
T3 sequence (Q13043 1-487): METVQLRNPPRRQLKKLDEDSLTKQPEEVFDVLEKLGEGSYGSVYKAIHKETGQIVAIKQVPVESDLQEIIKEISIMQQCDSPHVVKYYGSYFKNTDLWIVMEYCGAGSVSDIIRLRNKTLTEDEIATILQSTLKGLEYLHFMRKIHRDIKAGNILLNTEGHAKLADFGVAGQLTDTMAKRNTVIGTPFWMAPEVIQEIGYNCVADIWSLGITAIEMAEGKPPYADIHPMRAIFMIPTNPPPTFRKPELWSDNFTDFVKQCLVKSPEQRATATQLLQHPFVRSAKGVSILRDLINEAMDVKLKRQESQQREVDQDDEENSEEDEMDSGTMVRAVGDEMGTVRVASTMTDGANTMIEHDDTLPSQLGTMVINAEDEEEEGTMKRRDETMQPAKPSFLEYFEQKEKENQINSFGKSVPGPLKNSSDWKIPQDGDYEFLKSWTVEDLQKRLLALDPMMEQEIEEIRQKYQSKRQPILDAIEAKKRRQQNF

| Compound | Inhibition level, IRAK3 [1] | Inhibition level, EPHB1 ([2]; plate B8, inhibitor 100 uM) | Inhibition level, TGFBR2 ([3]; inhibitor 100 uM) | Inhibition level, STK4 ([4]; inhibitor 100 uM) | Inhibition level, EPHB1 ([2]; plate B8, Ro-31-8220, conc. not given) | Inhibition level, TGFBR2 ([3]; Ro-31-8220 90 uM) | Inhibition level, STK4 ([4]; Ro-31-8220, conc. not given) | Inhibition level, EPHB1 [2] | Inhibition level, TGFBR2 ([3]; Staurosporine 21.5 uM) | Inhibition level, STK4 ([4]; Staurosporine, conc. not given) | Inhibition level, EPHB1 ([2]; plate B8, Genistein, conc. not given) | Inhibition level, TGFBR2 ([3]; Genistein <3.7 mM) | Inhibition level, STK4 ([4]; Genistein, conc. not given) |
| --- | --- | --- | --- | --- | --- | --- | --- | --- | --- | --- | --- | --- | --- |
| O=S(=O)(NCCNC/C=C/c1ccc(Br)cc1)c1cccc2cnccc12 [H-89] | 0 | 1 | 2 | 2 | – | – | – | – | – | – | – | – | – |
| Cn1cc(C2=C(c3cn(CCCSC(=N)N)c4ccccc34)C(=O)NC2=O)c2ccccc21 [Ro-31-8220] | 2 | 0 | 2 | 2 | 2 | 2 | 0 | – | – | – | – | – | – |
| CC(=O)c1c(O)c(C)c(O)c(Cc2c(O)c3c(c(C(=O)/C=C/c4ccccc4)c2O)OC(C)(C)C=C3)c1O [Rottlerin (Mallotoxin)] | 2 | 1 | 2 | 0 | – | – | – | – | – | – | – | – | – |
| CC(C)(C)n1nc(-c2ccc(Cl)cc2)c2c(N)ncnc21 [PP2] | 2 | 2 | 2 | 2 | – | – | – | – | – | – | – | – | – |
| COc1cc2ncnc(Nc3cccc(Cl)c3)c2cc1OC [AG 1478] | 2 | 2 | 2 | 1 | – | – | – | – | – | – | – | – | – |
| N#C/C(=C/c1ccc(O)c(O)c1)C(=O)NCc1ccccc1 [AG 490] | 0 | 0 | 2 | 0 | – | – | – | – | – | – | – | – | – |
| CN[C@@H]1C[C@H]2O[C@@](C)([C@@H]1OC)n1c3ccccc3c3c4c(c5c6ccccc6n2c5c31)C(=O)NC4 [Staurosporine] | – | – | – | – | – | – | – | 2 | 2 | 0 | – | – | – |
| O=c1c(O)c(-c2ccc(O)c(O)c2)oc2cc(O)cc(O)c12 [Quercetin] | 0 | 0 | 0 | 0 | – | – | – | – | – | – | – | – | – |
| O=c1c(-c2ccc(O)cc2)coc2cc(O)cc(O)c12 [Genistein] | 2 | 1 | 2 | 0 | – | – | – | – | – | – | 0 | 1 | 0 |
